{
  "source": "patent US20170313669A1",
  "about": "“LACTONE COMPOUNDS AND METHODS OF MAKING AND USING SAME” (THE SCRIPPS RESEARCH INSTITUTE, priority 2015, published 2017)",
  "key": {"[1]": {"system": "COLO205 cells", "assay": "LC-MS lipid profiling of treated cells", "format": "cell-based, human", "conditions": "1 μM, 4 h", "experimental": "ABHD16A^+/+, ABHD16A^+/+, and ABHD16A^−/− littermates of 10 weeks age were anaesthetized by isoflurane and killed by decapitation. The tissues (brains were sliced laterally into two hemispheres; entire spinal cord) were harvested, weighed, and immediately submerged in liquid N2. Tissues (one half brain or entire spinal cord) were then Dounce-homogenized in 8 mL of 2:1:1 (vol/vol/vol) CHCl3: MeOH: PBS containing the internal standard mix (1 nmol 17:1 FFA, and 100 pmol each of 17:1 lyso-PS, 17:0-20:4 PS, 17:1 lyso-PC, 17:0-20:4 PC, 17:0-20:4 PE and 50 pmol of 2-AG-d5). Homogenates were transferred to a glass vial and centrifuged at 2800×g for 10 minutes to separate the two phases. The organic phase (bottom) was removed, 200 μL of formic acid was added to acidify the aqueous homogenate (to enhance extraction of phospholipids), and CHCl3 was added to make up 8 mL volume. The mixture was vortexed, and separated using centrifugation described above. Both the organic extracts were pooled, and dried under a stream of N2. The metabolomes were then re-solubilized in 120 μL of 2:1 (vol/vol) CHCl3: MeOH, and 10 μL were used for the targeted LC-MS analysis. For cellular and secreted metabolomics studies, serum free phenol red free RPMI 1640 media was used to prevent any promiscuous contributions from serum lipids. For the cellular metabolomics studies, 3×10^6 cells were used for all cancer cell lines (COLO205, K562, and MCF7) and lymphoblast cell lines (LCLs), and 2×10^6 cells were used for thioglycollate-elicited peritoneal macrophages. […]\nAll the metabolites analyzed in this study were quantified using the multiple reaction monitoring (MRM) methods the targeted LC/MS analysis was done using an Agilent Technologies 6460 Triple Quad LC/M with an Agilent Technologies 1290 Infinity series quaternary pump. All data was collected using the LC/MS Data Acquisition mode of the Mass Hunter Workstation Software version B.05.00 build 5.0.5027.0 SP, and analyzed using the Quantitative Analysis mode of the same software. […]"}, "[2]": {"target": "T1, mouse ABHD16A (Mus musculus, UniProt Q9Z1Q2)", "T1 construct": "full-length cDNA of human ABHD16A (Open Biosystems Catalog # MHS6278-202758315) or murine ABHD16A (Open Biosystems Catalog # MMM1013-202760516); host or cells: HEK293T, transient, pCMV-SPORT6", "T1 sequence (Q9Z1Q2 1-558)": "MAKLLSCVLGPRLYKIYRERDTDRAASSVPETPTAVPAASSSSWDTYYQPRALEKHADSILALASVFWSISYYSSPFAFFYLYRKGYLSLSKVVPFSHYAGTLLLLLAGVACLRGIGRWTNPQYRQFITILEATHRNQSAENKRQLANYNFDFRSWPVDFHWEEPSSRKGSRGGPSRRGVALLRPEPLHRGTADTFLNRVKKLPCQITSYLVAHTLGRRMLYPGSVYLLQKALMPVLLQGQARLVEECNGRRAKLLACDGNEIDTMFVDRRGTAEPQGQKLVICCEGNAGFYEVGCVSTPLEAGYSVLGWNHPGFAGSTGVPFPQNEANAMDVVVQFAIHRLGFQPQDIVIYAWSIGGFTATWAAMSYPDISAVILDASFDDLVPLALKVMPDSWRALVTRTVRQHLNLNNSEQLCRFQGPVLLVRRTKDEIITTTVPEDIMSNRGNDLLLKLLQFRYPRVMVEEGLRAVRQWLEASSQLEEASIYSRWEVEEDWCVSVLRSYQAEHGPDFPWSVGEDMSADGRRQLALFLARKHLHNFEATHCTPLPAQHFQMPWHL", "assay": "PS substrate assay, mouse ABHD16A-transfected HEK293T proteome", "format": "biochemical", "conditions": "30 min, 37° C.; C18:0/C18:2 PS 100 μM; read-out: IC50, PS-lipase activity"}, "[3]": {"system": "COLO205 cells", "assay": "PS lipase activity of membrane fraction after in situ treatment", "conditions": "1 μM, 4 h"}},
  "data": [
    {"smiles": "CCCCCCCCCCCCCC1OC(=O)/C1=C\\CCCCC(N)=O", "note": "(centres unmarked) [KC01, (Z)-6-(2-oxo-4-tridecyloxetan-3-ylidene)hexanamide]", "values": [
      {"measurement": "other lipids (PSs, PCs, PEs, lyso-PCs, lyso-PEs, MAGs)", "setting": "[1]", "result": "No changes"},
      {"measurement": "secreted lyso-PSs (18:1 and 18:0)", "setting": "[1]; serum-free media", "result": "decreased"},
      {"measurement": "cellular lyso-PSs", "setting": "[1]; vs DMSO", "result": "significant reductions in all detected cellular lyso-PSs"},
      {"measurement": "IC50", "setting": "[2]", "result": "520 ± 70", "unit": "nM"},
      {"measurement": "decrease of PS-lipase activity vs DMSO", "setting": "[3]", "result": "> 90", "unit": "%"}
    ]}
  ]
}
